According to patent publication US20200069629A1, “PHEROMONE COMPOSITIONS AND USES THEREOF” (CEVA SANTE ANIMALE, priority 2015, published 2020):

Test: Stability test of Formula A, contents by gas chromatography
Format: physicochemical
Conditions: in Formula A; for Content T3 months (25/60) / Content T3 months (40/75): 3 months; for Content T3 months (25/60) / Content T7 months (25/60): 25° C. and 60% RH; for Content T3 months (40/75): 40° C. and 75% RH; for Content T7 months (25/60): 7 months; for Content T0 month: white glass flask
Description: Detection and measures of the valeric acid, ethyl lactate and linoleic acid were made by using Gas chromatography (GC). Approximately 490 mg of linoleic acid, 53 mg of valeric acid and 78 mg of ethyl lactate accurately weighed are introduced into a 50 ml volumetric flask. This is completed to volume with ethyl acetate. […] A dilution 1/20 is made and completed to volume with ethyl acetate and the solution is stirred to homogenize. Approximately 2.5 g of Formula tested is introduced into a 20 ml volumetric flask. This is completed to volume with ethyl acetate. […] The solution is limpid. Gas chromatography equipped with a Capillary Column HP-FFAP 25 m×320 μm and a FID detector at 250° C. 1 μl of the solution is injected in the inlet (250° C.) and eluted through the column with Helium at constant flow (3 ml/min). Valeric acid (≈5.2 min), linoleic acid (≈13.5 min) and ethyl lactate (≈2.7 min) are quantified and contents thereof (% w/w) are given by the ratio of the areas of the peak corresponding to valeric acid, linoleic acid or ethyl lactate in the chromatogram obtained with the sample preparation and the standard solution.

Content T3 months (25/60)	Content T3 months (40/75)	Content T7 months (25/60)	Content T0 month	Structure (SMILES)
0.386 % w/w	0.364 % w/w	0.398 % w/w	0.395 % w/w	CCCCC/C=C\C/C=C\CCCCCCCC(=O)O [Linoleic acid]
0.060 % w/w	0.059 % w/w	0.059 % w/w	0.0625 % w/w	CCOC(=O)C(C)O (stereo not drawn) [Ethyl lactate]
0.039 % w/w	0.038 % w/w	0.039 % w/w	0.0425 % w/w	CCCCC(=O)O [Valeric acid]
